Marks after values point to notes of the source that are not given here.
Tests used:
[1] = Mayr nucleophilicity parameters N and sN (benzhydrylium methodology, Mayr-Patz equation); format: physicochemical; settings: dichloromethane, 20 °C
From the text: (1) Mayr-Patz Equation: lgk20^∘C=sN(N+E)
The MPE is a linear‐free‐energy relationship that characterizes electrophiles by the electrophilicity parameter E and nucleophiles by the solvent‐dependent parameters N (nucleophilicity) and s N (sensitivity toward changes in the electrophile reactivity). By using the MPE (Equation (1)), the construction of comprehensive nucleophilicity and electrophilicity scales becomes possible, which facilitate the comparison of various classes of Lewis base organocatalysts.^[ [110], [111], [112], [113], [114], [115], [116], [117], [118], [119], [120] ^]
(§1) In order to systematically investigate the influence of the chalcogen atom on the nucleophilicity of DHPB‐derived IChUs (Ch = O, S, Se, and Te), we utilized Mayr's benzhydrylium methodology.^[ [107] ^]
Figure 4 illustrates the linear correlations of the second‐order rate constants (lg k 2) with the electrophilicities E of Ar2CH^+ (18), which makes it possible to determine the Mayr nucleophilicity parameters N (and s N) for the DHPB‐derived IChUs IU3, ITU3, ISeU3, and ITeU3. […]
Figure 4 Linear correlations of second‐order rate constants (lg k 2) for the reactions of IU3, ITU3, ISeU3, and ITeU3 with Ar2CH^+ 18 (in dichloromethane at 20 °C) with the electrophilicities E of 18. The slopes of the linear correlations equal the nucleophile‐dependent sensitivity parameter s N. Intercepts on the abscissa reflect the nucleophilicity parameter N (N = –E at lg k 2 = 0).

[2] = Kinetics of IChU reactions with reference electrophile (ind)2CH+ (stopped-flow photometry); format: physicochemical; settings: E = −8.76, dichloromethane, 20 °C
From the text: as §1
(§2) In accordance with observations in previous studies on ITU reactivity,^[ [119] ^] mixing the strongly colored benzhydrylium tetrafluoroborates 18 with excess IChUs in dichloromethane gave rise to decolorization of the solutions due to the formation of isochalcogenouronium tetrafluoroborates 19, which are colourless (Figure 3a). Owing to reversibility of the C─N bond formation, generated adducts 19 from the IChU/benzhydrylium reactions were not isolated but characterized by ^1H, ^13C, and ^77Se NMR spectroscopy (the ^77Se nucleus is remarkably sensitive with observed changes of around 100 ppm when comparing the ^77Se resonances of free ISeUs with those of the corresponding selenouronium tetrafluoroborates^[ [95] ^]). The kinetics of the IChU reactions with the reference electrophiles 18 were traced by photometric methods using standard stopped‐flow techniques. To establish pseudo first‐order conditions and to secure a sufficient decay of the benzhydrylium's absorbance during the course of the reactions, the IChUs were employed at higher concentrations than the benzhydrylium ions. First‐order rate constants k obs (s^−1) were determined by fitting the mono‐exponential decay function in Equation (2) to the decreasing absorbance (A) of 18 during their reaction with the IChUs as exemplified for the reaction of ITeU3 with (ind)2CH^+ in Figure 3b. (2) A=A0e^−kobst+C […]
(§3) First‐order rate constants k obs correlated linearly with the IChU concentration. Therefore, second‐order rate constants k 2 (L mol^−1 s^−1) were determined from the slope of the linear regression curves (Figure 3c ^[ [95] ^]). Second‐order rate constants k 2 for all kinetically investigated reactions of DHPB‐derived IChUs (Ch = O, S, Se, and Te) with benzhydrylium ions 18 are gathered in Table 1.
(§4) Apart from CH2Cl2 also MeCN and THF are solvents that are commonly employed in reactions involving isochalcogenoureas. […]

[3] = Kinetics of IChU reactions with reference electrophile (mpa)2CH+ (stopped-flow photometry); format: physicochemical; settings: E = −5.89, dichloromethane, 20 °C
From the text: as §1
In accordance with observations in previous studies on ITU reactivity,^[ [119] ^] mixing the strongly colored benzhydrylium tetrafluoroborates 18 with excess IChUs in dichloromethane gave rise to decolorization of the solutions due to the formation of isochalcogenouronium tetrafluoroborates 19, which are colourless (Figure 3a). […] To establish pseudo first‐order conditions and to secure a sufficient decay of the benzhydrylium's absorbance during the course of the reactions, the IChUs were employed at higher concentrations than the benzhydrylium ions. First‐order rate constants k obs (s^−1) were determined by fitting the mono‐exponential decay function in Equation (2) to the decreasing absorbance (A) of 18 during their reaction with the IChUs as exemplified for the reaction of ITeU3 with (ind)2CH^+ in Figure 3b. […]
First‐order rate constants k obs correlated linearly with the IChU concentration. Therefore, second‐order rate constants k 2 (L mol^−1 s^−1) were determined from the slope of the linear regression curves (Figure 3c ^[ [95] ^]). […]

[4] = Kinetics of IChU reactions with reference electrophile (dma)2CH+ (stopped-flow photometry); format: physicochemical; settings: E = −7.02, dichloromethane, 20 °C
From the text: as §1, §2, §3, §4

[5] = Lewis basicity LB from equilibrium constants (photometric titrations) with benzhydrylium ions as reference Lewis acids; format: physicochemical; design: key: Mayr Lewis basicity scale; LB from K and reference LA via Eq. (3); settings: in dichloromethane, 20 °C
Experimental: (a) Lewis basicity. Previously, the Mayr group established a series of benzhydrylium ions as C‐centered Lewis acid references to construct a Lewis basicity scale in dichloromethane. Substituting experimentally determined equilibrium constants K (at 20 °C) and reported Lewis acidities LA for the benzhydrylium ions (Figure 7) in Equation (3) enables one to calculate the Lewis basicity (LB) of a Lewis base.^[ [121], [127] ^] (3) lgK(20^∘C)=LA+LB
The reversibility of the formation of adducts 19 (Equation (4)), which was also apparent in the kinetics by significant positive intercepts in several of the k obs versus [IChU] plots (Supporting Information), provided the opportunity to probe the thermodynamics of the C‐N bond‐forming reactions of IChUs with benzhydrylium ions as the reference Lewis acids in more detail.^[ [95] ^] (4) IChU+Ar2CH^+(18)⇌Ar2CH-IChU^+(19)
By assuming the validity of the Beer–Lambert law for dilute solutions, equilibrium constants K (L mol^−1) were determined in photometric titrations according to Equation (5) from the initial absorbance (A 0) of the benzhydrylium ions 18 and the absorbance at equilibrium (A, Equation 5), that is, after addition of a certain amount of an IChU.^[ [109], [110], [111], [112], [113], [114], [115], [119] ^] (5) K=[19]/[18]IChU=A0−A/AIChU

[6] = Kinetics of IChU reactions with reference electrophile (pyr)2CH+ (stopped-flow photometry); format: physicochemical; settings: E = −7.69, dichloromethane, 20 °C
From the text: as §1, §2, §3, §4

[7] = in methanolic aqueous solution (1:5-mixture); cited from earlier work

Structure (SMILES) | Nucleophile-specific sensitivity parameter sN [1] | Nucleophilicity parameter N [1] | Second-order rate constant k2 exptl [2] [M⁻¹ s⁻¹] | Second-order rate constant k2 exptl [3] [M⁻¹ s⁻¹] | Second-order rate constant k2 exptl [4] [M⁻¹ s⁻¹] | Lewis basicity LB [5] | Second-order rate constant k2 exptl [6] [M⁻¹ s⁻¹] | Brønsted basicity pKaH(H2O) [7]
c1ccc2c(c1)[Se]C1=NCCCN12 [ISeU3, SeDHPB] | 0.66 | 15.16 | 18100 | 1.16e+06 | 194000 | 15.54 | 107000 | >11 ^c)
c1ccc2c(c1)OC1=NCCCN12 [IU3, ODHPB] | 0.69 | 13.31 | 1200 | 129000 | 27900 | 13.66 | 7930 | 8.8 ^c)

— article PMC12643354, “From Oxygen to Tellurium: The Impact of the Chalcogen on Nucleophilicities and Basicities of Isochalcogenourea Catalysts” (Angewandte Chemie (International Ed. in English), 2025)
